Measurements reported in patent US6689773B2, “Uracil substituted phenyl sulfamoyl carboxamides” (BASF Aktiengesellschaft, priority 2000, dated 2004).

Columns and labels:
Format in all cases: in vivo
[1] = test system: ABUTH, Velvetleaf, Abutilon theophrasti, Medic.; experiment: Postemergence herbicidal evaluation (Example 147); details: rating scale 0-9, two to three weeks after treatment
Experimental: (§1) Seedling plants were grown in jiffy flats for about two weeks. The test compounds were dispersed in 80/20 acetone/water mixtures containing 1.0% SUN-IT®II, a methylated seed oil, in sufficient quantities to provide the equivalent of about 0.016 to 0.032 kg per hectare of active compound when applied to the plants through a spray nozzle operating at 40 psi for a predetermined time. After spraying, the plants were placed on greenhouse benches and were cared for in accordance with conventional greenhouse procedures. Approximately two to three weeks after treatment, the seedling plants were examined and rated according to the rating scale (0-9) set forth below. Where more than one test is involved for a given compound, the data are averaged. [table] The scale is based upon a visual observation of plant stand, vigor, malformation, size, chlorosis and overall plant appearance as compared with a control. Plant species employed in these evaluations are reported by header abbreviation, common name and scientific name. [table]

[2] = test system: ALOMY, Blackgrass, Alopecurus myosuroides; experiment: Postemergence herbicidal evaluation (Example 147); details: rating scale 0-9, two to three weeks after treatment
Experimental: as §1

[3] = test system: AMBEL, Ragweed, Common, Ambrosia artemiisifolia, L.; experiment: Postemergence herbicidal evaluation (Example 147); details: rating scale 0-9, two to three weeks after treatment
Experimental: as §1

[4] = test system: CHEAL, Lambsquarters, Chenopodium album, L. Common; experiment: Postemergence herbicidal evaluation (Example 147); details: rating scale 0-9, two to three weeks after treatment
Experimental: as §1

[5] = test system: DIGSA, Crabgrass, (Hairy) L, Digitaria sanguinalis, (L)Scop; experiment: Postemergence herbicidal evaluation (Example 147); details: rating scale 0-9, two to three weeks after treatment
Experimental: as §1

[6] = test system: ECHCG, Barnyardgrass, Echinochloa crusgalli, (L.)Beau; experiment: Postemergence herbicidal evaluation (Example 147); details: rating scale 0-9, two to three weeks after treatment
Experimental: as §1

[7] = test system: GLXMA, Soybean, Glycine max, (L.) Merr.; experiment: Postemergence herbicidal evaluation (Example 147); details: rating scale 0-9, two to three weeks after treatment
Experimental: as §1

[8] = test system: IPOHE, Morningglory, Ivyleaf, Ipomoea hederacea, (L)Jacq.; experiment: Postemergence herbicidal evaluation (Example 147); details: rating scale 0-9, two to three weeks after treatment
Experimental: as §1

[9] = test system: SETVI, Green foxtail, Setaria viridis, (L.)Beau; experiment: Postemergence herbicidal evaluation (Example 147); details: rating scale 0-9, two to three weeks after treatment
Experimental: as §1

[10] = test system: TRZAW, Winter wheat, Tritium Aestivum, L. (Winter); experiment: Postemergence herbicidal evaluation (Example 147); details: rating scale 0-9, two to three weeks after treatment
Experimental: as §1

[11] = test system: ZEAMX, Field corn, Zea mays L.; experiment: Postemergence herbicidal evaluation (Example 147); details: rating scale 0-9, two to three weeks after treatment
Experimental: as §1

[12] = test system: ABUTH, Velvetleaf, Abutilon theophrasti, Medic.; experiment: Preemergence herbicidal evaluation (Example 148); details: rating scale 0-9, two to four weeks after treatment
Experimental: (§2) The scale is based upon a visual observation of plant stand, vigor, malformation, size, chlorosis and overall plant appearance as compared with a control.
(§3) The herbicidal activity of the compounds of the present invention was evaluated by the following tests wherein the seeds of a variety of monocotyledonous and dicotyledonous plants were separately mixed with potting soil and planted on top of approximately one inch of soil in separate pint cups. After planting, the cups were sprayed with the selected aqueous acetone solution containing test compound in sufficient quantity to provide the equivalent of about 0.125 to 0.250 kg per hectare of test compound per cup. The treated cups were then placed on greenhouse benches, watered and cared for in accordance with conventional greenhouse procedures. From two to four weeks after treatment, the tests were terminated and each cup was examined and rated according to the rating system provided in Example 94. When more than one test was performed for a given compound, the data were averaged.

[13] = test system: ALOMY, Blackgrass, Alopecurus myosuroides; experiment: Preemergence herbicidal evaluation (Example 148); details: rating scale 0-9, two to four weeks after treatment
Experimental: as §2, §3

[14] = test system: AMBEL, Ragweed, Common, Ambrosia artemiisifolia, L.; experiment: Preemergence herbicidal evaluation (Example 148); details: rating scale 0-9, two to four weeks after treatment
Experimental: as §2, §3

[15] = test system: CHEAL, Lambsquarters, Chenopodium album, L. Common; experiment: Preemergence herbicidal evaluation (Example 148); details: rating scale 0-9, two to four weeks after treatment
Experimental: as §2, §3

[16] = test system: DIGSA, Crabgrass, (Hairy) L, Digitaria sanguinalis, (L)Scop; experiment: Preemergence herbicidal evaluation (Example 148); details: rating scale 0-9, two to four weeks after treatment
Experimental: as §2, §3

[17] = test system: ECHCG, Barnyardgrass, Echinochloa crusgalli, (L.)Beau; experiment: Preemergence herbicidal evaluation (Example 148); details: rating scale 0-9, two to four weeks after treatment
Experimental: as §2, §3

[18] = test system: GLXMA, Soybean, Glycine max, (L.) Merr.; experiment: Preemergence herbicidal evaluation (Example 148); details: rating scale 0-9, two to four weeks after treatment
Experimental: as §2, §3

[19] = test system: IPOHE, Morningglory, Ivyleaf, Ipomoea hederacea, (L)Jacq.; experiment: Preemergence herbicidal evaluation (Example 148); details: rating scale 0-9, two to four weeks after treatment
Experimental: as §2, §3

[20] = test system: SETVI, Green foxtail, Setaria viridis, (L.)Beau; experiment: Preemergence herbicidal evaluation (Example 148); details: rating scale 0-9, two to four weeks after treatment
Experimental: as §2, §3

[21] = test system: TRZAW, Winter wheat, Tritium Aestivum, L. (Winter); experiment: Preemergence herbicidal evaluation (Example 148); details: rating scale 0-9, two to four weeks after treatment
Experimental: as §2, §3

[22] = test system: XANST, Cocklebur, Xanthium strumariam; experiment: Preemergence herbicidal evaluation (Example 148); details: rating scale 0-9, two to four weeks after treatment
Experimental: as §2, §3

[23] = test system: ZEAMX, Field corn, Zea mays L.; experiment: Preemergence herbicidal evaluation (Example 148); details: rating scale 0-9, two to four weeks after treatment
Experimental: as §2, §3

CC(C)CCNS(=O)(=O)NC(=O)c1cc(-n2c(=O)cc(C(F)(F)F)n(C)c2=O)c(F)cc1Cl [Example 72]
2.0: Postemergence herbicidal rating ALMOY ([2]; rate 0.032 kg/ha) | Preemergence herbicidal rating ALMOY ([13]; rate 0.25 kg/ha) | Preemergence herbicidal rating DIGSA ([16]; rate 0.125 kg/ha)
1.0: Postemergence herbicidal rating ALMOY ([2]; rate 0.016 kg/ha) | Preemergence herbicidal rating ALMOY ([13]; rate 0.125 kg/ha) | Preemergence herbicidal rating TRZAW ([21]; rate 0.25 kg/ha)
8.0: Postemergence herbicidal rating CHEAL ([4]; rate 0.016 kg/ha) | Postemergence herbicidal rating CHEAL ([4]; rate 0.032 kg/ha) | Postemergence herbicidal rating ECHCG ([6]; rate 0.032 kg/ha) | Preemergence herbicidal rating GLXMA ([18]; rate 0.125 kg/ha) | Preemergence herbicidal rating SETVI ([20]; rate 0.25 kg/ha)
4.0: Postemergence herbicidal rating DIGSA ([5]; rate 0.016 kg/ha) | Postemergence herbicidal rating DIGSA ([5]; rate 0.032 kg/ha) | Preemergence herbicidal rating SETVI ([20]; rate 0.125 kg/ha)
9.0: Postemergence herbicidal rating ABUTH ([1]; rate 0.016 kg/ha) | Postemergence herbicidal rating ABUTH ([1]; rate 0.032 kg/ha) | Postemergence herbicidal rating AMBEL ([3]; rate 0.016 kg/ha) | Postemergence herbicidal rating AMBEL ([3]; rate 0.032 kg/ha) | Postemergence herbicidal rating IPOHE ([8]; rate 0.016 kg/ha) | Postemergence herbicidal rating IPOHE ([8]; rate 0.032 kg/ha) | Preemergence herbicidal rating ABUTH ([12]; rate 0.125 kg/ha) | Preemergence herbicidal rating ABUTH ([12]; rate 0.25 kg/ha) | Preemergence herbicidal rating AMBEL ([14]; rate 0.125 kg/ha) | Preemergence herbicidal rating AMBEL ([14]; rate 0.25 kg/ha) | Preemergence herbicidal rating CHEAL ([15]; rate 0.125 kg/ha) | Preemergence herbicidal rating CHEAL ([15]; rate 0.25 kg/ha) | Preemergence herbicidal rating GLXMA ([18]; rate 0.25 kg/ha) | Preemergence herbicidal rating IPOHE ([19]; rate 0.125 kg/ha) | Preemergence herbicidal rating IPOHE ([19]; rate 0.25 kg/ha) | Preemergence herbicidal rating XANST ([22]; rate 0.25 kg/ha)
5.0: Postemergence herbicidal rating SETVI ([9]; rate 0.016 kg/ha)
6.5: Postemergence herbicidal rating TRZAW ([10]; rate 0.032 kg/ha)
7.0: Postemergence herbicidal rating ZEAMX ([11]; rate 0.016 kg/ha) | Postemergence herbicidal rating ZEAMX ([11]; rate 0.032 kg/ha) | Preemergence herbicidal rating DIGSA ([16]; rate 0.25 kg/ha) | Preemergence herbicidal rating ECHCG ([17]; rate 0.125 kg/ha) | Preemergence herbicidal rating XANST ([22]; rate 0.125 kg/ha)
5.5: Postemergence herbicidal rating TRZAW ([10]; rate 0.016 kg/ha)
0.0: Preemergence herbicidal rating TRZAW ([21]; rate 0.125 kg/ha) | Preemergence herbicidal rating ZEAMX ([23]; rate 0.125 kg/ha) | Preemergence herbicidal rating ZEAMX ([23]; rate 0.25 kg/ha)
8.5: Postemergence herbicidal rating GLXMA ([7]; rate 0.016 kg/ha) | Postemergence herbicidal rating GLXMA ([7]; rate 0.032 kg/ha)
6.0: Postemergence herbicidal rating ECHCG ([6]; rate 0.016 kg/ha) | Postemergence herbicidal rating SETVI ([9]; rate 0.032 kg/ha) | Preemergence herbicidal rating ECHCG ([17]; rate 0.25 kg/ha)

CN(c1ccccc1)S(=O)(=O)NC(=O)c1cc(-n2c(=O)cc(C(F)(F)F)n(C)c2=O)c(F)cc1Cl [Example 73]
8.5: Postemergence herbicidal rating GLXMA ([7]; rate 0.016 kg/ha) | Postemergence herbicidal rating GLXMA ([7]; rate 0.032 kg/ha)
7.5: Postemergence herbicidal rating ZEAMX ([11]; rate 0.032 kg/ha)
7.0: Postemergence herbicidal rating ECHCG ([6]; rate 0.032 kg/ha) | Postemergence herbicidal rating ZEAMX ([11]; rate 0.016 kg/ha)
4.0: Postemergence herbicidal rating DIGSA ([5]; rate 0.016 kg/ha) | Postemergence herbicidal rating ECHCG ([6]; rate 0.016 kg/ha) | Postemergence herbicidal rating SETVI ([9]; rate 0.016 kg/ha)
5.0: Postemergence herbicidal rating SETVI ([9]; rate 0.032 kg/ha) | Preemergence herbicidal rating SETVI ([20]; rate 0.25 kg/ha)
2.0: Postemergence herbicidal rating ALMOY ([2]; rate 0.016 kg/ha) | Preemergence herbicidal rating SETVI ([20]; rate 0.125 kg/ha)
9.0: Postemergence herbicidal rating ABUTH ([1]; rate 0.016 kg/ha) | Postemergence herbicidal rating ABUTH ([1]; rate 0.032 kg/ha) | Postemergence herbicidal rating AMBEL ([3]; rate 0.016 kg/ha) | Postemergence herbicidal rating AMBEL ([3]; rate 0.032 kg/ha) | Postemergence herbicidal rating CHEAL ([4]; rate 0.032 kg/ha) | Postemergence herbicidal rating IPOHE ([8]; rate 0.016 kg/ha) | Postemergence herbicidal rating IPOHE ([8]; rate 0.032 kg/ha) | Preemergence herbicidal rating ABUTH ([12]; rate 0.125 kg/ha) | Preemergence herbicidal rating ABUTH ([12]; rate 0.25 kg/ha) | Preemergence herbicidal rating AMBEL ([14]; rate 0.125 kg/ha) | Preemergence herbicidal rating AMBEL ([14]; rate 0.25 kg/ha) | Preemergence herbicidal rating CHEAL ([15]; rate 0.125 kg/ha) | Preemergence herbicidal rating CHEAL ([15]; rate 0.25 kg/ha) | Preemergence herbicidal rating IPOHE ([19]; rate 0.125 kg/ha) | Preemergence herbicidal rating IPOHE ([19]; rate 0.25 kg/ha) | Preemergence herbicidal rating XANST ([22]; rate 0.25 kg/ha)
6.0: Postemergence herbicidal rating DIGSA ([5]; rate 0.032 kg/ha)
0.0: Preemergence herbicidal rating ALMOY ([13]; rate 0.125 kg/ha) | Preemergence herbicidal rating ALMOY ([13]; rate 0.25 kg/ha) | Preemergence herbicidal rating ECHCG ([17]; rate 0.125 kg/ha) | Preemergence herbicidal rating GLXMA ([18]; rate 0.125 kg/ha) | Preemergence herbicidal rating GLXMA ([18]; rate 0.25 kg/ha) | Preemergence herbicidal rating TRZAW ([21]; rate 0.125 kg/ha) | Preemergence herbicidal rating TRZAW ([21]; rate 0.25 kg/ha) | Preemergence herbicidal rating ZEAMX ([23]; rate 0.125 kg/ha) | Preemergence herbicidal rating ZEAMX ([23]; rate 0.25 kg/ha)
3.0: Postemergence herbicidal rating ALMOY ([2]; rate 0.032 kg/ha) | Preemergence herbicidal rating DIGSA ([16]; rate 0.125 kg/ha) | Preemergence herbicidal rating DIGSA ([16]; rate 0.25 kg/ha) | Preemergence herbicidal rating ECHCG ([17]; rate 0.25 kg/ha) | Preemergence herbicidal rating XANST ([22]; rate 0.125 kg/ha)
5.5: Postemergence herbicidal rating TRZAW ([10]; rate 0.016 kg/ha)
8.0: Postemergence herbicidal rating CHEAL ([4]; rate 0.016 kg/ha)
6.5: Postemergence herbicidal rating TRZAW ([10]; rate 0.032 kg/ha)
